What was measured:
[1] = humans, administered orally; cited from earlier work
rats = assay: motivation tests: progressive ratio task, cost-benefit choice test, consumption test; assay type: in vivo
Protocol: EXAMPLE 6: Effect of (R)-phenylpiracetam in motivation tests - Figs. 5, 6, 7, 8
Methylphenidate purchased from Sigma (Taufkirchen, Germany) was dissolved in distilled water fresh for each test day. D-Amphetamine purchased from Sigma (Taufkirchen, Germany) was dissolved in 0.9% sterile NaCl solution fresh for each test day. (R)-Phenylpiracetam was dissolved in distilled water fresh for each test day.
One hundred and three male Sprague-Dawley rats (Janvier, Le Genest-St-Isle, France) weighing 225-250 g on arrival were used.
The animals were kept under standard laboratory conditions in groups of up to 4 per care with ad libitum access to water. Standard diet for rodents (Altromin) was available to the animals at 15 g per animal/day
For each test described below, two independent experiments were performed using an identical protocol. After continuous reinforcement training (CRF) training (see below) all animals were assigned to treatment groups, such that performance across all the groups was similar. The treatment groups were evenly distributed throughout the caging system.
In experiment 1 and 2 the following protocols were used:
Overview: Three tests were performed in a consecutive manner on subsequent days. On day 1-2, animals were habituated individually to Skinner boxes in two sessions, one per day, for 30 min. Animals received "free" food pellets at a random time (one pellet per minute on average). On days 3-8 animals were trained in Skinner boxes on a continuous reinforcement schedule (one pellet per lever press). On days 9-10 they were tested in the progressive ratio test (Test 1) off-drug, on days 11-12 on-drug. On day 13, a choice test (Test 2) was performed on-drug, on day 14, a consumption test (Test 3) was performed on-drug. Below, tests are described in detail.
Behavioral testing was conducted in 12 operant test chambers (Med Associates, St. Albans, USA). Each chamber was equipped with a retractable lever, a food dispenser with receptacle, an overhead house light and two stimulus lights, one above the lever and the other above the food receptacle. An infrared photocell beam detected nose pokes into the food receptacle. The apparatus was controlled by a computer system (SmartControl®-Interface and MedPC-software, Med Associates, St. Albans, USA). The light above the food receptacle indicated the delivery of a food pellet in the receptacle. Rats were first habituated to the operant boxes for two sessions (30 min each) on two consecutive days. Thereafter, animals were trained for six sessions on the CRF schedule for 30 min. Followed by 4 sessions (two session off-drug followed by two sessions on-drug) of an increasing fixed ratio (FR) schedule in steps of 5, with 3 repetitions of each step (i.e. 1-1-1; 5-5-5; 10-10-10; ...). When the required FR value of each trial was achieved the light above the food receptacle indicated the delivery of a single food pellet (45 mg, Bioserve, USA). The light remained on until the rat poked its nose in the receptacle. Lever presses while the light was on were counted as perseverative lever presses; they were counted but had no programmed consequences. […] For each session, the value of the last completed ratio (breaking point) was recorded as well as the amount of received rewards, the perseverative lever presses, the duration of the session and the latency to respond. Animals of all treatment groups received respective vehicle/drug infusions 30 min pre-test on the final two sessions involving testing under a PR schedule.
In this task the rats had the choice between working for their preferred food (Bioserve pellets) by pressing the lever on a PR schedule as described above or obtaining lab chow being freely available in a dish (about 15 g) within the operant chamber. The food receptacle and the lever were positioned on the same wall of the operant chamber, the dish containing the lab chow was situated in a corner on the opposite side of the operant chamber. […]

[2] = just slightly stronger with (R)- than with (S)-phenylpiracetam; cited from earlier work
subjects with PD and EDS = settings: 200 to 400 mg/day vs placebo, 40 subjects with PD and EDS; cited from earlier work

In the case of `NC(=O)CN1CC(c2ccccc2)CC1=O` (racemic) [phenylpiracetam, 2-(4-phenyl-2-oxopyrrolidin-1-yl)acetamide], the half-life [1] is listed as 3 to 5 h.

In the case of `NC(=O)CN1C[C@H](c2ccccc2)CC1=O` [(S)-phenylpiracetam, reference compound], the effect on motivation (rats; 100 mg/kg) is reported as “only a very weak effect”, the “effect on motivation relative to (R)-phenylpiracetam” value (rats; 100 mg/kg, times lower than (R)-phenylpiracetam) is reported as 2.5 times and the effect on motivation (rats; 200 mg/kg) is reported as “no significant effect”. For the same compound, the “locomotor activity in the open-field test” value [2] was “significant increase”.

In the case of `NC(=O)C[S+]([O-])C(c1ccccc1)c1ccccc1` (stereo not drawn) [modafinil], the “Epworth sleepiness score (primary outcome measure) and secondary outcome measures” value (subjects with PD and EDS) is given as “no benefit”.

Source: patent publication EP2891491A1, “Use of (r)-phenylpiracetam for the treatment of sleep disorders” (Merz Pharma GmbH & Co. KGaA, priority 2014, dated 2015)
